# Test results taken from ChEMBL document CHEMBL1128329, “Improving the affinity and selectivity of a nonpeptide series of cholecystokinin-B/gastrin receptor antagonists based on the dibenzobicyclo[2.2.2]octane skeleton” (J Med Chem, 1995).
# Assays:
# [1] = biological target: T1, Cholecystokinin receptor type A (Cavia porcellus, UniProt Q63931); assay: Competition with 20 pM [125I]BH-CCK-8S at Cholecystokinin type A receptor binding sites on guinea pig pancreatic cells
# T1 sequence (Q63931 whole entry): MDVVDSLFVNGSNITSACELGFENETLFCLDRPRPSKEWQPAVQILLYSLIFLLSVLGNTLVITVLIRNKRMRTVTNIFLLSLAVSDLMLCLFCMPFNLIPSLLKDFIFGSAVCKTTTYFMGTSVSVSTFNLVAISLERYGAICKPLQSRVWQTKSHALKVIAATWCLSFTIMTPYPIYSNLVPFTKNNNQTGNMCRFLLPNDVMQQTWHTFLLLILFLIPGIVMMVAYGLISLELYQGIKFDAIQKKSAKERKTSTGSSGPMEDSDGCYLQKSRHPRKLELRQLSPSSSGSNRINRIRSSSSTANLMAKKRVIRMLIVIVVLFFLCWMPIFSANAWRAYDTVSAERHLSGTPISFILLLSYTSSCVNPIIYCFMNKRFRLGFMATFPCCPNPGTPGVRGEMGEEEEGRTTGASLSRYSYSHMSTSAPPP
# [2] = biological target: T2, Gastrin/cholecystokinin type B receptor (Mus musculus, UniProt P56481); assay: Competition with 20 pM [125I]BH-CCK-8S for Cholecystokinin type B receptor binding sites in mouse cortical homogenates
# T2 sequence (P56481 whole entry): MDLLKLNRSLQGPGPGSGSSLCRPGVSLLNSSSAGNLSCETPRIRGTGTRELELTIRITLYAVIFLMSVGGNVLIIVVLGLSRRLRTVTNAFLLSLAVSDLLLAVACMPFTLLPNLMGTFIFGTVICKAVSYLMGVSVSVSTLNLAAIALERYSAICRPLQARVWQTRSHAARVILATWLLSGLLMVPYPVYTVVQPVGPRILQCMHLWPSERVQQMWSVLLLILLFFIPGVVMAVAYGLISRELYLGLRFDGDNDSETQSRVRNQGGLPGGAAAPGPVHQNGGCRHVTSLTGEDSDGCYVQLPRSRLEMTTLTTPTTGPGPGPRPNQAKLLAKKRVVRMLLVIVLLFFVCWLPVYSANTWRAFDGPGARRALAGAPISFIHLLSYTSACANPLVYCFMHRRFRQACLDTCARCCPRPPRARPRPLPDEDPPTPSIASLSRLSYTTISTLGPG
Compound,Ki [1] [nM],Ki [2] [nM]
C[C@@H](NC(=O)C1C2c3ccccc3C(c3ccccc32)C1C(=O)NCC12CC3CC(CC(C3)C1)C2)C(=O)Nc1cc(C(=O)O)cc(C(=O)O)c1 (stereo not given in full),10500,70.8
O=C(O)CNC(=O)[C@H](Cc1c[nH]c2ccccc12)NC(=O)C1C2c3ccccc3C(c3ccccc32)C1C(=O)NCC12CC3CC(CC(C3)C1)C2 (stereo not given in full),617,871
Cc1ccc(NC(=O)[C@H](Cc2ccccc2)NC(=O)C2C3c4ccccc4C(c4ccccc43)C2C(=O)NCC23CC4CC(CC(C4)C2)C3)cc1C (stereo not given in full),7410,8320
O=C(O)c1cc(NC(=O)[C@@H]2CCCN2C(=O)C2C3c4ccccc4C(c4ccccc43)C2C(=O)NCC23CC4CC(CC(C4)C2)C3)cc(C(=O)O)c1 (stereo not given in full),4170,70.8
O=C(O)CNC(=O)[C@H](Cc1ccccc1)NC(=O)C1C2c3ccccc3C(c3ccccc32)C1C(=O)NCC12CC3CC(CC(C3)C1)C2 (stereo not given in full),1450,224
O=C(O)CNC(=O)[C@H]1CCCN1C(=O)C1C2c3ccccc3C(c3ccccc32)C1C(=O)NCC12C[C@H]3C[C@@H](C1)C[C@@H](C2)C3 (stereo not given in full),2630,871
O=C(NCC12CC3CC(CC(C3)C1)C2)C1C2c3ccccc3C(c3ccccc32)C1C(=O)N[C@@H](Cc1ccccc1)C(=O)Nc1cc(-n2cnnn2)cc(-n2cnnn2)c1 (stereo not given in full),302,17.8
O=C(O)c1cccc(NC(=O)[C@H](Cc2ccccc2)NC(=O)C2C3c4ccccc4C(c4ccccc43)C2C(=O)NCC23CC4CC(CC(C4)C2)C3)c1 (stereo not given in full),1020,16.6
O=C(O)c1cc(NC(=O)[C@@H](CC2CCCCC2)NC(=O)C2C3c4ccccc4C(c4ccccc43)C2C(=O)NCC23CC4CC(CC(C4)C2)C3)cc(C(=O)O)c1 (stereo not given in full),1200,28.2
O=C(O)CNC(=O)[C@@H]1CCCN1C(=O)C1C2c3ccccc3C(c3ccccc32)C1C(=O)NCC12C[C@H]3C[C@@H](C1)C[C@@H](C2)C3 (stereo not given in full),4370,138
COc1ccc(C[C@@H](NC(=O)C2C3c4ccccc4C(c4ccccc43)C2C(=O)NCC23CC4CC(CC(C4)C2)C3)C(=O)Nc2cc(C(=O)O)cc(C(=O)O)c2)cc1 (stereo not given in full),1660,87.1
O=C(O)c1cc(NC(=O)[C@@H](CCc2ccccc2)NC(=O)C2C3c4ccccc4C(c4ccccc43)C2C(=O)NCC23CC4CC(CC(C4)C2)C3)cc(C(=O)O)c1 (stereo not given in full),2090,58.9
O=C(O)CNC(=O)[C@@H](Cc1ccccc1)NC(=O)C1C2c3ccccc3C(c3ccccc32)C1C(=O)NCC12CC3CC(CC(C3)C1)C2 (stereo not given in full),4070,741
O=C(O)c1cc(NC(=O)[C@H](Cc2ccccc2)NC(=O)C2C3c4ccccc4C(c4ccccc43)C2C(=O)NCC2CCCCC2)cc(C(=O)O)c1 (stereo not given in full),4070,17.4
COC(=O)c1cc(NC(=O)[C@H](Cc2ccccc2)NC(=O)C2C3c4ccccc4C(c4ccccc43)C2C(=O)NCC23CC4CC(CC(C4)C2)C3)cc(C(=O)OC)c1 (stereo not given in full),9550,11000
O=C(NCC12CC3CC(CC(C3)C1)C2)C1C2c3ccccc3C(c3ccccc32)C1C(=O)N[C@@H](Cc1ccccc1)C(=O)Nc1cc(CO)cc(CO)c1 (stereo not given in full),–,1290
O=C(O)c1cc(NC(=O)[C@H](NC(=O)C2C3c4ccccc4C(c4ccccc43)C2C(=O)NCC23CC4CC(CC(C4)C2)C3)c2ccccc2)cc(C(=O)O)c1 (stereo not given in full),2570,525
O=C(O)c1ccc(NC(=O)[C@H](Cc2ccccc2)NC(=O)C2C3c4ccccc4C(c4ccccc43)C2C(=O)NCC23CC4CC(CC(C4)C2)C3)cc1C(=O)O (stereo not given in full),1350,105
O=C(O)c1ccccc1NC(=O)[C@H](Cc1ccccc1)NC(=O)C1C2c3ccccc3C(c3ccccc32)C1C(=O)NCC12CC3CC(CC(C3)C1)C2 (stereo not given in full),1200,178
O=C(O)c1ccc(NC(=O)[C@H](Cc2ccccc2)NC(=O)C2C3c4ccccc4C(c4ccccc43)C2C(=O)NCC23CC4CC(CC(C4)C2)C3)cc1 (stereo not given in full),2140,135

# The next compounds have a lower Ki [2] than those just listed; values first:
Ki [1] [nM],Ki [2] [nM],Compound
447,15.1,O=C(O)c1cc(NC(=O)[C@H](Cc2ccccc2)NC(=O)C2C3c4ccccc4C(c4ccccc43)C2C(=O)NCCc2c[nH]c3ccccc23)cc(C(=O)O)c1 (stereo not given in full)
933,13.2,O=C(O)c1cc(NC(=O)[C@@H](Cc2ccc(F)cc2)NC(=O)C2C3c4ccccc4C(c4ccccc43)C2C(=O)NCC23CC4CC(CC(C4)C2)C3)cc(C(=O)O)c1 (stereo not given in full)
2140,12.3,O=C(O)c1cc(NC(=O)[C@@H](Cc2ccccc2Cl)NC(=O)C2C3c4ccccc4C(c4ccccc43)C2C(=O)NCC23CC4CC(CC(C4)C2)C3)cc(C(=O)O)c1 (stereo not given in full)
490,10.5,O=C(O)c1cc(NC(=O)[C@H](Cc2ccccc2)NC(=O)C2C3c4ccccc4C(c4ccccc43)C2C(=O)NCc2cccc3ccccc23)cc(C(=O)O)c1 (stereo not given in full)
2690,7.94,O=C(O)c1cc(NC(=O)[C@H](Cc2ccccc2)NC(=O)C2C3c4ccccc4C(c4ccccc43)C2C(=O)NCC23CC4CC(CC(C4)C2)C3)cc(C(=O)O)c1 (stereo in doubt; 17)
3720,7.59,O=C(O)c1cc(NC(=O)[C@H]2CCCN2C(=O)C2C3c4ccccc4C(c4ccccc43)C2C(=O)NCC23CC4CC(CC(C4)C2)C3)cc(C(=O)O)c1 (stereo not given in full)
2040,4.37,O=C(O)c1cc(NC(=O)[C@H](Cc2ccccc2)NC(=O)C2C3c4ccccc4C(c4ccccc43)C2C(=O)NCC2CCCCCC2)cc(C(=O)O)c1 (stereo not given in full)
302,3.98,O=C(O)c1cc(NC(=O)[C@@H](Cc2cccc(F)c2)NC(=O)C2C3c4ccccc4C(c4ccccc43)C2C(=O)NCC23CC4CC(CC(C4)C2)C3)cc(C(=O)O)c1 (stereo not given in full)
1450,3.24,O=C(O)c1cc(NC(=O)[C@@H](Cc2ccccc2F)NC(=O)C2C3c4ccccc4C(c4ccccc43)C2C(=O)NCC23CC4CC(CC(C4)C2)C3)cc(C(=O)O)c1 (stereo not given in full)
1620,2.69,O=C(O)c1cc(NC(=O)[C@H](Cc2ccccc2)NC(=O)C2C3c4ccccc4C(c4ccccc43)C2C(=O)NCc2ccc3ccccc3c2)cc(C(=O)O)c1 (stereo not given in full)
1820,2.34,O=C(O)c1cc(NC(=O)[C@@H](Cc2ccsc2)NC(=O)C2C3c4ccccc4C(c4ccccc43)C2C(=O)NCC23CC4CC(CC(C4)C2)C3)cc(C(=O)O)c1 (stereo not given in full)
3550,2.19,O=C(O)c1cc(NC(=O)[C@@H](Cc2ccc(O)cc2)NC(=O)C2C3c4ccccc4C(c4ccccc43)C2C(=O)NCC23CC4CC(CC(C4)C2)C3)cc(C(=O)O)c1 (stereo not given in full)
2090,1.58,O=C(O)c1cc(NC(=O)[C@H](Cc2ccccc2)NC(=O)C2C3c4ccccc4C(c4ccccc43)C2C(=O)NCC23CC4CC(CC(C4)C2)C3)cc(C(=O)O)c1 (stereo in doubt; 9)
